Assay results: ChEMBL document CHEMBL1145623, “Structure-activity relationships of anthranilamide-based factor Xa inhibitors containing piperidinone and pyridinone P4 moieties” (Bioorg Med Chem Lett, 2008)
Converted amounts (≈) assume the structure as drawn.

Experiments:
[1] = Solubility in potassium phosphate buffer at pH 6.5 by thermodynamic equilibrium aqueous solubility assay; type: physicochemical
Canis familiaris [2] = experiment: Clearance in dog at 0.02 to 0.5 mg/kg, iv and po; type: ADME, organism-based, Canis lupus familiaris; design: dose 0.02-0.5 mg/kg, route oral; conditions: in vivo
[3] = Half life in dog at 0.02 to 0.5 mg/kg, po; type: ADME, organism-based, Canis lupus familiaris; design: dose 0.02-0.5 mg/kg, route oral; conditions: in vivo
Canis familiaris [4] = experiment: Volume of distribution at steady state in dog at 0.02 to 0.5 mg/kg, iv and po; type: ADME, organism-based, Canis lupus familiaris; design: dose 0.02-0.5 mg/kg, route oral; conditions: in vivo
[5] = Bioavailability in dog at 0.02 to 0.5 mg/kg, po; type: ADME, organism-based, Canis lupus familiaris; conditions: in vivo

Row | solubility thermodynamic [1] | CL (Canis familiaris [2]) | half-life [3] | Vdss (Canis familiaris [4]) | bioavailability [5] | SMILES
1 |  | 13 mL/min/kg | 0.7 h | 2.6 L/kg | 18% | COc1cc(Cl)cc(C(=O)Nc2ccc(Cl)cn2)c1NC(=O)c1ccc(-n2ccccc2=O)cc1F
2 |  | 11.2 mL/min/kg | 0.7 h | 0.62 L/kg | 99% | COc1cc(Cl)cc(C(=O)Nc2ccc(Cl)cn2)c1NC(=O)c1ccc(-n2ccccc2=O)cc1
3 |  | 0.33 mL/min/kg | 5.8 h | 0.2 L/kg |  | COc1ccc(-n2nc(C(N)=O)c3c2C(=O)N(c2ccc(N4CCCCC4=O)cc2)CC3)cc1 [APIXABAN]

Second part, the compound before the results:

Row | SMILES | solubility thermodynamic [1] | CL (Canis familiaris [2]) | half-life [3] | Vdss (Canis familiaris [4]) | bioavailability [5]
4 | COc1cc(Cl)cc(C(=O)Nc2ccc(Cl)cn2)c1NC(=O)c1ccc(N2CCCCC2=O)cc1 | 19 µg/mL (≈ 37 µM) | 12 mL/min/kg | 1.5 h | 1.3 L/kg | 44%
5 | COc1cc(Cl)cc(C(=O)Nc2ccc(Cl)cn2)c1NC(=O)c1ccc(-n2ccccc2=O)nc1 |  | 5 mL/min/kg | 1.6 h | 0.81 L/kg | 74%
6 | CN(C)CCOc1cc(Cl)cc(C(=O)Nc2ccc(Cl)cn2)c1NC(=O)c1ccc(N2CCCCC2=O)cc1 | 912 µg/mL (≈ 1600 µM) |  |  |  | 
